Test results as given in PubChem BioAssay (NCI).
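1) Cells in 96-well plates. 2) Compound, 48 h, 5 concentrations. 3) Linear interpolation between surrounding doses. 4) Unreached endpoint = highest concentration. TGI is the concentration that stops growth completely.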

What was measured:
Experiment in all cases: NCI-60 cell line screen, 48 h
HOP-92 NSCLC = test system: HOP-92 NSCLC
TK-10 renal = test system: TK-10 renal
HCT-15 colon = test system: HCT-15 colon
T-47D breast = test system: T-47D breast
MDA-MB-435 = test system: MDA-MB-435
OVCAR-3 ovarian = test system: OVCAR-3 ovarian
SF-539 CNS = test system: SF-539 CNS
NCI-H460 lung = test system: NCI-H460 lung
UACC-257 melanoma = test system: UACC-257 melanoma
MALME-3M melanoma = test system: MALME-3M melanoma
LOX IMVI melanoma = test system: LOX IMVI melanoma
OVCAR-4 ovarian = test system: OVCAR-4 ovarian
SF-268 CNS = test system: SF-268 CNS
K-562 leukemia = test system: K-562 leukemia
ACHN renal = test system: ACHN renal
COLO 205 colon = test system: COLO 205 colon
IGROV1 ovarian = test system: IGROV1 ovarian
MOLT-4 leukemia = test system: MOLT-4 leukemia
NCI-H226 lung = test system: NCI-H226 lung
CCRF-CEM leukemia = test system: CCRF-CEM leukemia
SN12C renal = test system: SN12C renal
HL-60(TB) leukemia = test system: HL-60(TB) leukemia
CAKI-1 renal = test system: CAKI-1 renal
BT-549 breast = test system: BT-549 breast
OVCAR-8 ovarian = test system: OVCAR-8 ovarian
786-0 renal = test system: 786-0 renal
MDA-N = test system: MDA-N
A549 NSCLC = test system: A549 NSCLC
OVCAR-5 ovarian = test system: OVCAR-5 ovarian
SK-OV-3 ovarian = test system: SK-OV-3 ovarian
HCT-116 colon = test system: HCT-116 colon
NCI-H23 lung = test system: NCI-H23 lung
PC-3 prostate = test system: PC-3 prostate
U251 CNS = test system: U251 CNS
SK-MEL-28 melanoma = test system: SK-MEL-28 melanoma
MDA-MB-231 breast = test system: MDA-MB-231 breast
UACC-62 melanoma = test system: UACC-62 melanoma
RXF 393 renal = test system: RXF 393 renal
KM12 colon = test system: KM12 colon
MCF7 breast = test system: MCF7 breast
HCC-2998 colon = test system: HCC-2998 colon
NCI/ADR-RES ovarian = test system: NCI/ADR-RES ovarian
UO-31 renal = test system: UO-31 renal
DU-145 prostate = test system: DU-145 prostate
EKVX NSCLC = test system: EKVX NSCLC
SNB-75 CNS = test system: SNB-75 CNS
HS 578T breast = test system: HS 578T breast
A498 renal = test system: A498 renal
HT29 colon = test system: HT29 colon
SK-MEL-2 melanoma = test system: SK-MEL-2 melanoma
SW-620 colon = test system: SW-620 colon
M14 melanoma = test system: M14 melanoma
SF-295 CNS = test system: SF-295 CNS
HOP-62 NSCLC = test system: HOP-62 NSCLC
RPMI-8226 leukemia = test system: RPMI-8226 leukemia
SK-MEL-5 melanoma = test system: SK-MEL-5 melanoma
SNB-19 CNS = test system: SNB-19 CNS
NCI-H522 lung = test system: NCI-H522 lung

Question: With `C[C@]12CC[C@@H]3c4cc(Br)c(O)c(Br)c4CC[C@H]3[C@@H]1CCC2=O` as the compound, how does the TGI (HOP-92 NSCLC) read?
Answer: > 100 µM

Question: What about the TGI (TK-10 renal) of the same compound?
Answer: 34.5 µM

Question: And the TGI (HCT-15 colon)?
Answer: 26.1 µM

Question: And the TGI (T-47D breast)?
Answer: > 100 µM

Question: What about the TGI (MDA-MB-435) of the same compound?
Answer: > 100 µM

Question: And the TGI (OVCAR-3 ovarian)?
Answer: 31.4 µM

Question: And the TGI (SF-539 CNS)?
Answer: 39.3 µM

Question: What about the TGI (NCI-H460 lung) of the same compound?
Answer: 48.9 µM

Question: What about the TGI (UACC-257 melanoma) of the same compound?
Answer: 56.1 µM

Question: And the TGI (MALME-3M melanoma)?
Answer: > 100 µM

Question: What about the TGI (LOX IMVI melanoma) of the same compound?
Answer: 71.9 µM

Question: What about the TGI (OVCAR-4 ovarian) of the same compound?
Answer: 41.9 µM

Question: What about the TGI (SF-268 CNS) of the same compound?
Answer: 54.3 µM

Question: And the TGI (K-562 leukemia)?
Answer: > 100 µM

Question: What about the TGI (ACHN renal) of the same compound?
Answer: 26.9 µM

Question: What about the TGI (COLO 205 colon) of the same compound?
Answer: > 100 µM

Question: And the TGI (IGROV1 ovarian)?
Answer: > 100 µM

Question: And the TGI (MOLT-4 leukemia)?
Answer: 80.6 µM

Question: And the TGI (NCI-H226 lung)?
Answer: 26 µM

Question: What about the TGI (CCRF-CEM leukemia) of the same compound?
Answer: > 100 µM

Question: And the TGI (SN12C renal)?
Answer: 65.1 µM

Question: What about the TGI (HL-60(TB) leukemia) of the same compound?
Answer: > 100 µM

Question: And the TGI (CAKI-1 renal)?
Answer: 38.9 µM

Question: And the TGI (BT-549 breast)?
Answer: 57.7 µM

Question: What about the TGI (OVCAR-8 ovarian) of the same compound?
Answer: 39.5 µM

Question: And the TGI (786-0 renal)?
Answer: 46.4 µM

Question: What about the TGI (MDA-N) of the same compound?
Answer: > 100 µM

Question: What about the TGI (A549 NSCLC) of the same compound?
Answer: 36.2 µM

Question: And the TGI (OVCAR-5 ovarian)?
Answer: 65.2 µM

Question: What about the TGI (SK-OV-3 ovarian) of the same compound?
Answer: 95.7 µM

Question: What about the TGI (HCT-116 colon) of the same compound?
Answer: > 100 µM

Question: And the TGI (NCI-H23 lung)?
Answer: 26.7 µM

Question: What about the TGI (PC-3 prostate) of the same compound?
Answer: > 100 µM

Question: What about the TGI (U251 CNS) of the same compound?
Answer: 36.5 µM

Question: And the TGI (SK-MEL-28 melanoma)?
Answer: > 100 µM

Question: What about the TGI (MDA-MB-231 breast) of the same compound?
Answer: > 100 µM

Question: What about the TGI (UACC-62 melanoma) of the same compound?
Answer: > 100 µM

Question: What about the TGI (RXF 393 renal) of the same compound?
Answer: 36.7 µM

Question: What about the TGI (KM12 colon) of the same compound?
Answer: > 100 µM

Question: And the TGI (MCF7 breast)?
Answer: 43.9 µM

Question: What about the TGI (HCC-2998 colon) of the same compound?
Answer: 26.9 µM

Question: What about the TGI (NCI/ADR-RES ovarian) of the same compound?
Answer: 36.9 µM

Question: What about the TGI (UO-31 renal) of the same compound?
Answer: 24.2 µM

Question: And the TGI (DU-145 prostate)?
Answer: > 100 µM

Question: What about the TGI (EKVX NSCLC) of the same compound?
Answer: 74.8 µM

Question: And the TGI (SNB-75 CNS)?
Answer: 33.3 µM

Question: What about the TGI (HS 578T breast) of the same compound?
Answer: 52.2 µM

Question: What about the TGI (A498 renal) of the same compound?
Answer: > 100 µM

Question: And the TGI (HT29 colon)?
Answer: > 100 µM

Question: What about the TGI (SK-MEL-2 melanoma) of the same compound?
Answer: 38.3 µM

Question: And the TGI (SW-620 colon)?
Answer: > 100 µM

Question: What about the TGI (M14 melanoma) of the same compound?
Answer: > 100 µM

Question: And the TGI (SF-295 CNS)?
Answer: 38.1 µM

Question: For `O=C(CON1C(=O)c2ccccc2C1=O)c1ccccc1`, which TGI (HOP-92 NSCLC) is on record?
Answer: > 100 µM

Question: And the TGI (TK-10 renal)?
Answer: 55 µM

Question: What about the TGI (HCT-15 colon) of the same compound?
Answer: > 100 µM

Question: And the TGI (HOP-62 NSCLC)?
Answer: > 100 µM

Question: And the TGI (T-47D breast)?
Answer: 52.6 µM

Question: And the TGI (MDA-MB-435)?
Answer: > 100 µM

Question: What about the TGI (OVCAR-3 ovarian) of the same compound?
Answer: > 100 µM

Question: And the TGI (SF-539 CNS)?
Answer: > 100 µM

Question: And the TGI (NCI-H460 lung)?
Answer: > 100 µM

Question: What about the TGI (UACC-257 melanoma) of the same compound?
Answer: > 100 µM

Question: What about the TGI (MALME-3M melanoma) of the same compound?
Answer: 56.9 µM

Question: What about the TGI (LOX IMVI melanoma) of the same compound?
Answer: > 100 µM

Question: And the TGI (RPMI-8226 leukemia)?
Answer: 40.4 µM

Question: What about the TGI (OVCAR-4 ovarian) of the same compound?
Answer: > 100 µM

Question: And the TGI (SF-268 CNS)?
Answer: > 100 µM

Question: What about the TGI (K-562 leukemia) of the same compound?
Answer: > 100 µM

Question: And the TGI (ACHN renal)?
Answer: > 100 µM

Question: And the TGI (COLO 205 colon)?
Answer: > 100 µM

Question: And the TGI (IGROV1 ovarian)?
Answer: > 100 µM

Question: And the TGI (NCI-H226 lung)?
Answer: > 100 µM

Question: And the TGI (SN12C renal)?
Answer: > 100 µM

Question: And the TGI (SK-MEL-5 melanoma)?
Answer: > 100 µM

Question: What about the TGI (CAKI-1 renal) of the same compound?
Answer: 34.8 µM

Question: And the TGI (BT-549 breast)?
Answer: > 100 µM

Question: What about the TGI (OVCAR-8 ovarian) of the same compound?
Answer: > 100 µM

Question: And the TGI (786-0 renal)?
Answer: > 100 µM

Question: What about the TGI (MDA-N) of the same compound?
Answer: > 100 µM

Question: And the TGI (A549 NSCLC)?
Answer: > 100 µM

Question: What about the TGI (OVCAR-5 ovarian) of the same compound?
Answer: > 100 µM

Question: And the TGI (SK-OV-3 ovarian)?
Answer: > 100 µM

Question: And the TGI (HCT-116 colon)?
Answer: > 100 µM

Question: And the TGI (NCI-H23 lung)?
Answer: > 100 µM

Question: What about the TGI (SNB-19 CNS) of the same compound?
Answer: > 100 µM

Question: What about the TGI (PC-3 prostate) of the same compound?
Answer: > 100 µM

Question: And the TGI (U251 CNS)?
Answer: > 100 µM

Question: And the TGI (SK-MEL-28 melanoma)?
Answer: > 100 µM

Question: What about the TGI (MDA-MB-231 breast) of the same compound?
Answer: > 100 µM

Question: What about the TGI (UACC-62 melanoma) of the same compound?
Answer: > 100 µM

Question: What about the TGI (RXF 393 renal) of the same compound?
Answer: > 100 µM

Question: What about the TGI (KM12 colon) of the same compound?
Answer: > 100 µM

Question: And the TGI (MCF7 breast)?
Answer: > 100 µM

Question: And the TGI (NCI-H522 lung)?
Answer: 36.6 µM

Question: And the TGI (NCI/ADR-RES ovarian)?
Answer: > 100 µM

Question: What about the TGI (UO-31 renal) of the same compound?
Answer: 40.7 µM

Question: What about the TGI (DU-145 prostate) of the same compound?
Answer: > 100 µM

Question: And the TGI (EKVX NSCLC)?
Answer: > 100 µM

Question: And the TGI (SNB-75 CNS)?
Answer: > 100 µM

Question: What about the TGI (HS 578T breast) of the same compound?
Answer: > 100 µM

Question: What about the TGI (A498 renal) of the same compound?
Answer: > 100 µM

Question: And the TGI (HT29 colon)?
Answer: > 100 µM

Question: What about the TGI (SK-MEL-2 melanoma) of the same compound?
Answer: > 100 µM

Question: And the TGI (SW-620 colon)?
Answer: 69.1 µM

Question: And the TGI (M14 melanoma)?
Answer: > 100 µM

Question: What about the TGI (SF-295 CNS) of the same compound?
Answer: > 100 µM
